Assay results published in PubChem BioAssay (NCI).
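Where inhibition never reached the appropriate level, the endpoint shown equals the highest concentration tested. Otherwise, values were interpolated linearly from a five-concentration, 48-hour dose response in 96-well plates. The concentration for 50% growth inhibition is given as GI50. Definition used: TGI = concentration required for complete inhibition of growth.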

How the values were obtained:
Experiment in all cases: inhibition of tumour cell growth, NCI panel, 48 h; in the data active = GI50 below about 0.43 µM; inactive = the rest
HOP-62 NSCLC = system: HOP-62 NSCLC
SN12C renal = system: SN12C renal
SF-295 CNS = system: SF-295 CNS
A498 renal = system: A498 renal
IGROV1 ovarian = system: IGROV1 ovarian
EKVX NSCLC = system: EKVX NSCLC
MOLT-4 leukemia = system: MOLT-4 leukemia
HCT-116 colon = system: HCT-116 colon
SF-268 CNS = system: SF-268 CNS
OVCAR-4 ovarian = system: OVCAR-4 ovarian
786-0 renal = system: 786-0 renal
DU-145 prostate = system: DU-145 prostate
OVCAR-5 ovarian = system: OVCAR-5 ovarian
TK-10 renal = system: TK-10 renal
CCRF-CEM leukemia = system: CCRF-CEM leukemia
T-47D breast = system: T-47D breast
SK-MEL-28 melanoma = system: SK-MEL-28 melanoma
ACHN renal = system: ACHN renal
MDA-MB-435 = system: MDA-MB-435
SK-MEL-5 melanoma = system: SK-MEL-5 melanoma
NCI-H522 lung = system: NCI-H522 lung
COLO 205 colon = system: COLO 205 colon
SK-MEL-2 melanoma = system: SK-MEL-2 melanoma
NCI/ADR-RES ovarian = system: NCI/ADR-RES ovarian
MALME-3M melanoma = system: MALME-3M melanoma
A549 NSCLC = system: A549 NSCLC
SF-539 CNS = system: SF-539 CNS
SNB-19 CNS = system: SNB-19 CNS
PC-3 prostate = system: PC-3 prostate
OVCAR-3 ovarian = system: OVCAR-3 ovarian
MDA-MB-231 breast = system: MDA-MB-231 breast
UACC-62 melanoma = system: UACC-62 melanoma
HCT-15 colon = system: HCT-15 colon
BT-549 breast = system: BT-549 breast
HT29 colon = system: HT29 colon
U251 CNS = system: U251 CNS
NCI-H226 lung = system: NCI-H226 lung
SNB-75 CNS = system: SNB-75 CNS
UACC-257 melanoma = system: UACC-257 melanoma
OVCAR-8 ovarian = system: OVCAR-8 ovarian
UO-31 renal = system: UO-31 renal
SK-OV-3 ovarian = system: SK-OV-3 ovarian
SW-620 colon = system: SW-620 colon
LOX IMVI melanoma = system: LOX IMVI melanoma
MCF7 breast = system: MCF7 breast
K-562 leukemia = system: K-562 leukemia
HCC-2998 colon = system: HCC-2998 colon
RXF 393 renal = system: RXF 393 renal
NCI-H23 lung = system: NCI-H23 lung
HS 578T breast = system: HS 578T breast
CAKI-1 renal = system: CAKI-1 renal
KM12 colon = system: KM12 colon
RPMI-8226 leukemia = system: RPMI-8226 leukemia
HL-60(TB) leukemia = system: HL-60(TB) leukemia
NCI-H460 lung = system: NCI-H460 lung
SR leukemia = system: SR leukemia
M14 melanoma = system: M14 melanoma

Cc1ccc(S(=O)(=O)n2cc(-c3nnnn3-c3ccc(Cl)cc3)c(=O)c3ccccc32)cc1
57 µM: TGI (MOLT-4 leukemia)
> 100 µM: TGI (HOP-62 NSCLC) | TGI (SN12C renal) | TGI (SF-295 CNS) | TGI (A498 renal) | TGI (IGROV1 ovarian) | TGI (EKVX NSCLC) | TGI (HCT-116 colon) | TGI (SF-268 CNS) | TGI (OVCAR-4 ovarian) | TGI (786-0 renal) | TGI (DU-145 prostate) | TGI (OVCAR-5 ovarian) | TGI (TK-10 renal) | TGI (CCRF-CEM leukemia) | TGI (T-47D breast) | TGI (SK-MEL-28 melanoma) | TGI (ACHN renal) | TGI (MDA-MB-435) | TGI (SK-MEL-5 melanoma) | TGI (NCI-H522 lung) | TGI (COLO 205 colon) | TGI (SK-MEL-2 melanoma) | TGI (NCI/ADR-RES ovarian) | TGI (MALME-3M melanoma) | TGI (A549 NSCLC) | TGI (SF-539 CNS) | TGI (SNB-19 CNS) | TGI (PC-3 prostate) | TGI (OVCAR-3 ovarian) | TGI (MDA-MB-231 breast) | TGI (UACC-62 melanoma) | TGI (HCT-15 colon) | TGI (BT-549 breast) | TGI (HT29 colon) | TGI (U251 CNS) | TGI (NCI-H226 lung) | TGI (SNB-75 CNS) | TGI (UACC-257 melanoma) | TGI (OVCAR-8 ovarian) | TGI (UO-31 renal) | TGI (SK-OV-3 ovarian) | TGI (SW-620 colon) | TGI (LOX IMVI melanoma) | TGI (MCF7 breast) | TGI (K-562 leukemia) | TGI (HCC-2998 colon) | TGI (RXF 393 renal) | TGI (NCI-H23 lung) | TGI (HS 578T breast) | TGI (CAKI-1 renal) | TGI (KM12 colon) | TGI (NCI-H460 lung) | TGI (SR leukemia) | TGI (M14 melanoma)
31 µM: TGI (HL-60(TB) leukemia)
59 µM: TGI (RPMI-8226 leukemia)
inactive: GI50 (HOP-62 NSCLC) 73.6 µM | GI50 (SN12C renal) > 100 µM | GI50 (SF-295 CNS) 52.9 µM | GI50 (A498 renal) 77.3 µM | GI50 (IGROV1 ovarian) > 100 µM | GI50 (EKVX NSCLC) > 100 µM | GI50 (MOLT-4 leukemia) 21.2 µM | GI50 (HCT-116 colon) 45.9 µM | GI50 (SF-268 CNS) > 100 µM | GI50 (OVCAR-4 ovarian) 53.7 µM | GI50 (786-0 renal) > 100 µM | GI50 (DU-145 prostate) > 100 µM | GI50 (OVCAR-5 ovarian) > 100 µM | GI50 (TK-10 renal) > 100 µM | GI50 (CCRF-CEM leukemia) 43.4 µM | GI50 (T-47D breast) 57.9 µM | GI50 (SK-MEL-28 melanoma) > 100 µM | GI50 (ACHN renal) > 100 µM | GI50 (MDA-MB-435) > 100 µM | GI50 (SK-MEL-5 melanoma) 70.6 µM | GI50 (NCI-H522 lung) 41.3 µM | GI50 (COLO 205 colon) 93 µM | GI50 (SK-MEL-2 melanoma) > 100 µM | GI50 (NCI/ADR-RES ovarian) > 100 µM | GI50 (MALME-3M melanoma) > 100 µM | GI50 (A549 NSCLC) 76.3 µM | GI50 (SF-539 CNS) > 100 µM | GI50 (SNB-19 CNS) > 100 µM | GI50 (PC-3 prostate) 57.3 µM | GI50 (OVCAR-3 ovarian) > 100 µM | GI50 (MDA-MB-231 breast) > 100 µM | GI50 (UACC-62 melanoma) 54.8 µM | GI50 (HCT-15 colon) > 100 µM | GI50 (BT-549 breast) > 100 µM | GI50 (HT29 colon) 57.7 µM | GI50 (U251 CNS) 88.6 µM | GI50 (NCI-H226 lung) > 100 µM | GI50 (SNB-75 CNS) 39.6 µM | GI50 (UACC-257 melanoma) > 100 µM | GI50 (OVCAR-8 ovarian) > 100 µM | GI50 (UO-31 renal) 52.5 µM | GI50 (SK-OV-3 ovarian) > 100 µM | GI50 (SW-620 colon) > 100 µM | GI50 (LOX IMVI melanoma) > 100 µM | GI50 (MCF7 breast) 80.6 µM | GI50 (K-562 leukemia) 20.1 µM | GI50 (HCC-2998 colon) > 100 µM | GI50 (RXF 393 renal) 29.6 µM | GI50 (NCI-H23 lung) > 100 µM | GI50 (HS 578T breast) > 100 µM | GI50 (CAKI-1 renal) > 100 µM | GI50 (KM12 colon) > 100 µM | GI50 (RPMI-8226 leukemia) 21.9 µM | GI50 (HL-60(TB) leukemia) 12.9 µM | GI50 (NCI-H460 lung) 81.9 µM | GI50 (SR leukemia) 40.9 µM | GI50 (M14 melanoma) 49.5 µM
